Patent US9353067B2, “Heterocyclic compounds and uses thereof in the treatment of sexual disorders” (ATIR Holding S.A., priority 2011, dated 2016)

Columns and labels:
[1] = target: PARP-1 (Homo sapiens (Human), UniProt P09874); experiment: Universal Chemiluminescent PARP Assay; assay type: biochemical
Protocol: In addition, R-55 and its hydrochloride salt were assayed for PARP (poly(ADP-ribose)polymerase) inhibitory activity, as some quinazolinone derivatives, particularly derivatives comprising quinazolinone linked via a three-carbon moiety to substituted pyridinyl and piperazinyl moieties, have been identified as potent PARP inhibitors [U.S. Patent Application Publication No. 2004/0077667; Iwashita et al., FEBS Lett 579:1389-1393(2005); Hattori et al., J Med Chem 47:4151-4154(2004)]. PARP plays a natural role in repair of DNA damage, and inhibition of PARP may lead to undesirable side effects in any treatment of a sexual disorder.
Inhibition of PARP-1 was assayed using a Universal Chemiluminescent PARP Assay (Trevigen, Inc.).
The tested compounds were diluted from 2.1 mg of powder in 25 μl of DMSO. The tested compounds were diluted to 100 μM in 1% DMSO/99% ethanol. 3-Aminobenzamide (3-AB), a commercially available weak PARP inhibitor, was used as a positive control. The activity of PARP was quantified as relative light units (RLU). Each of the tested compounds was assayed twice.
In Assay 1, the 100 μM stock solution was diluted to 40 μM in 1×PARP buffer. The compounds were then serially diluted down to 0.4 μM. Each tested compound was
further diluted 1:4 during the assay, so the final concentrations ranged from 10 μM to 0.1 μM.
In Assay 2, the 100 μM stock was added to 1×PARP buffer to prepare samples with concentrations ranging from 40 μM to 2 μM. A 10 μM stock solution was added to 1×PARP buffer to prepare samples with concentrations of 1 μM and 0.4 μM. Each tested compound was further diluted 1:4 during the assay, so the final concentrations ranged from 10 μM to 0.1 μM.

[2] = target: D4.4 type dopamine receptor (Homo sapiens (Human), UniProt P21917); experiment: Competitive binding to D4.4 receptor ([3H]-YM-09151-2); details: human recombinant receptor in CHO cells, [3H]-YM-09151-2 0.3 nM
Chain of D4.4 type dopamine receptor (P21917 whole entry): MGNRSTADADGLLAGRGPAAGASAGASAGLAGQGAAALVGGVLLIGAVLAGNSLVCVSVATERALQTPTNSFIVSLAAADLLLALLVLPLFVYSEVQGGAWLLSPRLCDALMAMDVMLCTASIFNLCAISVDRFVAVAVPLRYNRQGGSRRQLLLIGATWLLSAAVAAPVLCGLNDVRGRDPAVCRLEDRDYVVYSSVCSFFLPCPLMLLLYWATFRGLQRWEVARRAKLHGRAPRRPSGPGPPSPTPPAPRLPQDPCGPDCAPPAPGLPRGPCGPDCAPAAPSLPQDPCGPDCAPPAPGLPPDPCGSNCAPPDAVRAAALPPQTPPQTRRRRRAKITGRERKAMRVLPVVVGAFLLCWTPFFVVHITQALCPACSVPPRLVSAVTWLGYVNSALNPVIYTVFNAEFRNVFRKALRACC
Protocol: R-55 (which comprises a 3-hydroxyphenyl moiety) and its isomers L-221 (comprising a 4-hydroxyphenyl moiety) and L-238 (comprising a 2-hydroxyphenyl moiety) were assayed for competitive binding to D2 SHORT and D4.4 type dopamine receptors, in order to assess their efficacy for treating sexual disorders. Both receptor types are expressed as human recombinant proteins in CHO cells, as described, for example, in Jarvis et al. (1973); Van Tol et al. (1991) and Van Tol et al. (1992).
Determination of binding to D4.4 receptor was performed using [^3H]-YM-09151-2 (70-87 Ci/mmol, 0.3 nM), as a radioligand, in the presence of various concentrations of the tested compound. Reactions were carried out in 50 mM TRIS-HCl (pH 7.4) containing 5 mM MgCl2, 5 mM EDTA, 5 mM KCl and 1.5 mM CaCl2, for 60 minutes at 22° C. The reaction was terminated by rapid vacuum filtration onto glass fiber filters. Radioactivity trapped onto the filters was determined (counted) and compared to control values in order to accurately evaluate any interaction of the tested compound(s) with the cloned dopamine D4.4 binding site.

[3] = Solubility of R-55 in solvents for transdermal formulation; assay type: physicochemical
Protocol: To this effect, a stable oil-in-water emulsion was developed. Various solvents were tested in order to achieve an R-55 concentration of up to 20 mg/gram in the lipid phase of the emulsion, in order to achieve a total concentration of up to 10 mg/gram R-55.
The following organic solvents which are used in transdermal formulations were tested: […]

[4] = target: Dopamine D1 receptor (Homo sapiens (Human), UniProt P21728); experiment: Competitive binding, SCH-23390 radioligand
Chain of Dopamine D1 receptor (P21728 whole entry): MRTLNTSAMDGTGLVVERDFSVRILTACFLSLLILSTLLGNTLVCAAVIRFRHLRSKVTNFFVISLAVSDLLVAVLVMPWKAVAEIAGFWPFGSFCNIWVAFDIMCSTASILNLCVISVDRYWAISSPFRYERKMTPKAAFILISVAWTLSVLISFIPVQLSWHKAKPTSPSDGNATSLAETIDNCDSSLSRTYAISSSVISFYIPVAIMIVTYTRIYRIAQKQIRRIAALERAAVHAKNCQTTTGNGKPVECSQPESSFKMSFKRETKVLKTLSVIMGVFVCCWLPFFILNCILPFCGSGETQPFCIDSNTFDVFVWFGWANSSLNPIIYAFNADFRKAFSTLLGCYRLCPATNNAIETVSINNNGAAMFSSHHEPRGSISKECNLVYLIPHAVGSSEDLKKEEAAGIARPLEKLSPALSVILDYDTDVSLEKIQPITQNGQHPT
Protocol: (§1) R-55 (which comprises a 3-hydroxyphenyl moiety) and the structurally related compounds N-108 (2-{[4-(2-ethoxyphenyl)piperazin-1-yl]methyl}quinazolin-4(3H)-one) and B-39 (7-chloro-2-((5,6-dihydro-4-(2-methoxyphenyl)pyridin-1(2H)-yl)methyl)quinazolin-4(3H)-one) were assayed for competitive binding to a variety of receptors, including D4.4 type dopamine receptor, in order to assess their specificity for D4.4 dopamine receptors.
(§2) The receptors were expressed as human recombinant proteins in CHO cells, except for adrenergic α1 and α2 receptors which were expressed in Wistar rat brain and cerebral cortex cells, respectively, and melanocortin MC4 receptor which was expressed in human recombinant HEK-293 cells. Binding was determined using the following radioligands in the presence of various concentrations of the tested compound:
(§3) 1.4 nM and 2 nM SCH-23390, respectively, for dopamine D1 and D5 receptors,
(§4) The binding assays were performed in accordance with procedures described in the literature (Greengrass & Bremner, 1979; Boyajian & Leslie, 1987; Broadhurst, 1988; Lewis, 2001; Sutton, 1995; Dearry, 1990; Zhou, 1990; Grandy, 1989; Hayes, 1992; Sokoloff, 1990; Van Tol, 1991; Van Tol 1992; Sunahara, 1991; Weinshank, 1991; Schioth, 1996; Schioth 1997; Martin & Humphrey, 1994; May, 2003; Wolf & Schutz, 1997).

[5] = target: Dopamine D5 receptor (Homo sapiens (Human), UniProt P21918); experiment: Competitive binding, SCH-23390 radioligand
Chain of Dopamine D5 receptor (P21918 whole entry): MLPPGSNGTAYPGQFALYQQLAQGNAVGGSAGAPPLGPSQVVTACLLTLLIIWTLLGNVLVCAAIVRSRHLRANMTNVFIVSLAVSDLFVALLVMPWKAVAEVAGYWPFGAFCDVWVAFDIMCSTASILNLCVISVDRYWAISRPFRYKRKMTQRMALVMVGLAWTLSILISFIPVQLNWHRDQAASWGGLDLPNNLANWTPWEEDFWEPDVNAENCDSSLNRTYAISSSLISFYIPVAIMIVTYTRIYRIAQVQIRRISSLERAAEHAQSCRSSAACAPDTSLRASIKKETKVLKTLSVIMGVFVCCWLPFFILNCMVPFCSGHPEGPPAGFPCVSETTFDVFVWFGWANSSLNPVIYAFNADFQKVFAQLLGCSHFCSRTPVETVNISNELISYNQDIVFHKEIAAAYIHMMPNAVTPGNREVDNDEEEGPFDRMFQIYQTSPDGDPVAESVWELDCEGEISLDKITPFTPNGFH
Protocol: as §1, §2, §3, §4

[6] = target: Serotonin 5-HT2C receptor (Homo sapiens (Human), UniProt P28335); experiment: Competitive binding, mesulergine radioligand
Chain of Serotonin 5-HT2C receptor (P28335 33-458): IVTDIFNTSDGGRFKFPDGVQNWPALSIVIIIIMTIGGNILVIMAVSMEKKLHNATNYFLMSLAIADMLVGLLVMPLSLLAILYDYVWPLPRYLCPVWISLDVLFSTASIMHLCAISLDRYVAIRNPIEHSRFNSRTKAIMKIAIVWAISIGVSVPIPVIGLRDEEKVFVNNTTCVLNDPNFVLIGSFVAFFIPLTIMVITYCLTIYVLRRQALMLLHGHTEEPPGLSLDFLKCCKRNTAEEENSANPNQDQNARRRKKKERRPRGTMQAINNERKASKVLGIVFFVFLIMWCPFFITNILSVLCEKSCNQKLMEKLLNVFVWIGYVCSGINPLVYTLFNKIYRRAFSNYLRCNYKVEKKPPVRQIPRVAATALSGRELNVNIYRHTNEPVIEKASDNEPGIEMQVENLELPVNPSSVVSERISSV
Protocol: as §1, §2
1 nM mesulergine for serotonin 5-HT2C receptor.
as §4

Chain of PARP-1 (P09874 whole entry): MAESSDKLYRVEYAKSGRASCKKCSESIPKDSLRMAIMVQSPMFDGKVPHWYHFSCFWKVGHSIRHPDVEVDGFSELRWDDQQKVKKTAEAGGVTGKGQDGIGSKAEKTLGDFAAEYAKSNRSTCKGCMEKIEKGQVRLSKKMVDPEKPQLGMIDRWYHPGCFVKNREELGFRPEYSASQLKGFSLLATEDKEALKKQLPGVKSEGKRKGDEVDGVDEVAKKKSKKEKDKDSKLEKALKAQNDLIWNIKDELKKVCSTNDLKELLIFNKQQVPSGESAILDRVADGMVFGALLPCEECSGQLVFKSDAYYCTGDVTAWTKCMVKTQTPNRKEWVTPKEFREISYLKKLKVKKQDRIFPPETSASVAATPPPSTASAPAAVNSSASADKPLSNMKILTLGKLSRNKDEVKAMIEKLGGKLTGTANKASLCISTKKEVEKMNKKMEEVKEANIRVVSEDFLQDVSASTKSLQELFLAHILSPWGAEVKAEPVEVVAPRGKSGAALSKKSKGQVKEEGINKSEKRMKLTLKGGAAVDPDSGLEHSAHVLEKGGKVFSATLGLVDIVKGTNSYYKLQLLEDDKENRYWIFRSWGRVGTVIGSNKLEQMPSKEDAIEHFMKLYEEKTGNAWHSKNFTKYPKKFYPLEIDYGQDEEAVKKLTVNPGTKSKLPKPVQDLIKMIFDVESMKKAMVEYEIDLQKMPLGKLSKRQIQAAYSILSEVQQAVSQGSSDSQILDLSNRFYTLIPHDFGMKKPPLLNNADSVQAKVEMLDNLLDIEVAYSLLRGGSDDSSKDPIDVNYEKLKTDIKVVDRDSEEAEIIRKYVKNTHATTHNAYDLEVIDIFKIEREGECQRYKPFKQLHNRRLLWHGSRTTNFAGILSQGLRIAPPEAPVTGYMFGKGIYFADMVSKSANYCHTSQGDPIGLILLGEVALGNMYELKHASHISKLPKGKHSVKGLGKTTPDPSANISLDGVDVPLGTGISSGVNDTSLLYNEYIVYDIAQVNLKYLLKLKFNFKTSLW

## O=c1[nH]c(CN2CCN(c3cccc(O)c3)CC2)nc2ccccc12 [Compound R-55, 2-((4-(3-hydroxyphenyl)piperazin-1-yl)methyl)quinazolin-4-one]
[1]; 5 μM, average results from two assays
  inhibition at 5 µM: 19%
[1]; 10 μM, average results from two assays
  inhibition at 10 µM: 21%
[1]; Assay 1 and Assay 2, 0.1 μM to 10 μM
  inhibition of PARP (in words): did not exhibit any significant inhibition of PARP
[2]
  IC50: 500 nM
[3]; propylene glycol (PG)
  solubility of R-55 in propylene glycol: less than 5 mg/gram
[3]; weight ratio of 4:1 PG:PC
  solubility of R-55 in propylene glycol with phosphatidyl choline: 8 mg/gram
[4]
  Competitive binding (%) at 5 μM of tested compound: −12%
[5]
  Competitive binding (%) at 5 μM of tested compound: 0%
[6]
  Competitive binding (%) at 5 μM of tested compound: 5%
